According to patent publication US11691949B2, “Quinoline sulfonamide compounds and their use as antibacterial agents” (OTAGO INNOVATION LIMITED, priority 2017, dated 2023):
In brackets after ≈: the same amount, converted by molar mass. Read-outs that look alike come from different tables or passages of the source.

Tests used:
Format in all cases: cell-based
S. uberis ATCC 19436 [1] = experiment: MBC by Miles-Misra drop-plate method, S. uberis; settings: Streptococcus uberis
S. uberis ATCC 19436 [2] = experiment: MIC by broth microdilution, S. uberis; settings: Streptococcus uberis
Method in brief: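 This broth microdilution assay used S. uberis ATCC 19436 in Todd Hewitt Broth, with zinc sulphate heptahydrate added where required to a final 50 μM. Inhibitor concentration ranges came from two-fold serial dilutions in 96-well flat bottom plates at 200 μl. Approximately 5×10^5 cfu/mL cells were incubated for 24 h at 37° C. and 200 rpm. Wells were then read at OD600 on a Varioskan Flash reader.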

S. aureus ATCC 6538 [3] = experiment: MBC by Miles-Misra drop-plate method, S. aureus; settings: Staphylococcus aureus
Method in brief: (§1)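 Overnight cultures diluted to ~5×10^5 cfu/mL final; S. aureus in TSB and CAMHB, E. coli in LB and CAMHB, zinc sulphate to 50 μM final as required; two-fold serial dilutions. MIC = lowest concentration with no growth by OD600 after 24 h, 37° C, 200 rpm. MBC by Miles-Misra drop-plate viability count.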

S. aureus ATCC 6538 [4] = experiment: MIC by broth microdilution, S. aureus; settings: Staphylococcus aureus
Method in brief: as §1

E. coli ATCC 10536 = experiment: MBC by Miles-Misra drop-plate method, E. coli; settings: Escherichia coli
Method in brief: as §1

E. coli ATCC 10596 = experiment: MIC by broth microdilution, E. coli; settings: Escherichia coli
Method in brief: as §1

[5] = ATCC19436, read-out: S. uberis ATCC 19436 MBC, No Zinc
[6] = ATCC19436, read-out: S. uberis ATCC 19436 MBC, Zinc (50 μM)
[7] = ATCC19436, read-out: S. uberis ATCC 19436 MIC, No Zinc
[8] = ATCC19436, read-out: S. uberis ATCC 19436 MIC, Zinc (50 μM)
[9] = ATCC6538, read-out: S. aureus ATCC 6538 MBC, No Zinc
[10] = ATCC6538, read-out: S. aureus ATCC 6538 MBC, Zinc (50 μM)
[11] = ATCC6538, read-out: S. aureus ATCC 6538 MIC, No Zinc
[12] = ATCC6538, read-out: S. aureus ATCC 6538 MIC, Zinc (50 μM)
[13] = ATCC10536, read-out: E. coli ATCC 10536 MBC, No Zinc
[14] = ATCC10536, read-out: E. coli ATCC 10536 MBC, Zinc (50 μM)
[15] = ATCC 10536 / ATCC 10596, read-out: E. coli ATCC 10536 MIC, No Zinc
[16] = ATCC 10536 / ATCC 10596, read-out: E. coli ATCC 10536 MIC, Zinc (50 μM)
[17] = ATCC19436, No Zinc, read-out: S. uberis ATCC 19436 MBC
[18] = ATCC19436, Zinc (50 μM), read-out: S. uberis ATCC 19436 MBC
[19] = ATCC19436, No Zinc, read-out: S. uberis ATCC 19436 MIC
[20] = ATCC19436, Zinc (50 μM), read-out: S. uberis ATCC 19436 MIC
[21] = ATCC6538, No Zinc, read-out: S. aureus ATCC 6538 MBC
[22] = ATCC6538, Zinc (50 μM), read-out: S. aureus ATCC 6538 MBC
[23] = ATCC6538, No Zinc, read-out: S. aureus ATCC 6538 MIC
[24] = ATCC6538, Zinc (50 μM), read-out: S. aureus ATCC 6538 MIC
[25] = ATCC10536, No Zinc, read-out: E. coli ATCC 10536 MBC
[26] = ATCC10536, Zinc (50 μM), read-out: E. coli ATCC 10536 MBC
[27] = ATCC 10536 / ATCC 10596, No Zinc, read-out: E. coli ATCC 10536 MIC
[28] = ATCC 10536 / ATCC 10596, Zinc (50 μM), read-out: E. coli ATCC 10536 MIC

Row | SMILES | MBC (S. uberis ATCC 19436 [1]; [5]) | MBC (S. uberis ATCC 19436 [1]; [6]) | MIC (S. uberis ATCC 19436 [2]; [7]) | MIC (S. uberis ATCC 19436 [2]; [8]) | MBC (S. aureus ATCC 6538 [3]; [9]) | MBC (S. aureus ATCC 6538 [3]; [10]) | MIC (S. aureus ATCC 6538 [4]; [11]) | MIC (S. aureus ATCC 6538 [4]; [12]) | MBC (S. uberis ATCC 19436 [1]; [17]) | MBC (S. uberis ATCC 19436 [1]; [18]) | MIC (S. uberis ATCC 19436 [2]; [19]) | MIC (S. uberis ATCC 19436 [2]; [20]) | MBC (S. aureus ATCC 6538 [3]; [21]) | MBC (S. aureus ATCC 6538 [3]; [22]) | MIC (S. aureus ATCC 6538 [4]; [23]) | MIC (S. aureus ATCC 6538 [4]; [24]) | MBC (E. coli ATCC 10536; [25]) | MBC (E. coli ATCC 10536; [26]) | MIC (E. coli ATCC 10596; [27]) | MIC (E. coli ATCC 10596; [28]) | also measured
1 | N=C(N)NCCNCc1ccc2cccc(NS(=O)(=O)c3ccc(C(F)(F)F)cc3)c2n1 [ZDR143, N-(2-(((2-Guanidinoethyl)amino)methyl)quinolin-8-yl)-4-(trifluoromethyl)benzenesulfonamide di-trifluoroacetate] | 8 µg/mL (≈ 17.1 µM) | 8 µg/mL (≈ 17.1 µM) | 8 µg/mL (≈ 17.1 µM) | 4 µg/mL (≈ 8.57 µM) | 16 µg/mL (≈ 34.3 µM) | 16 µg/mL (≈ 34.3 µM) | 8 µg/mL (≈ 17.1 µM) | 8 µg/mL (≈ 17.1 µM) | – | – | – | – | – | – | – | – | – | – | – | – | MBC (E. coli ATCC 10536; [13]): 32 µg/mL (≈ 68.6 µM); MBC (E. coli ATCC 10536; [14]): 32 µg/mL (≈ 68.6 µM); MIC (E. coli ATCC 10596; [15]): 16 µg/mL (≈ 34.3 µM); MIC (E. coli ATCC 10596; [16]): 16 µg/mL (≈ 34.3 µM)
2 | CN(C)CCCNCc1ccc2cccc(NS(=O)(=O)c3ccc(C(F)(F)F)cc3)c2n1 [ZDR090, N-(2-(((3-(Dimethylamino)propyl)amino)methyl)quinolin-8-yl)-4-(trifluoromethyl)benzenesulfonamide di-trifluoroacetate] | 8 µg/mL (≈ 17.1 µM) | 0.5 µg/mL (≈ 1.07 µM) | 4 µg/mL (≈ 8.57 µM) | 0.5 µg/mL (≈ 1.07 µM) | 16 µg/mL (≈ 34.3 µM) | 32 µg/mL (≈ 68.6 µM) | 16 µg/mL (≈ 34.3 µM) | 16 µg/mL (≈ 34.3 µM) | – | – | – | – | – | – | – | – | – | – | – | – | MBC (E. coli ATCC 10536; [13]): 16 µg/mL (≈ 34.3 µM); MBC (E. coli ATCC 10536; [14]): 16 µg/mL (≈ 34.3 µM); MIC (E. coli ATCC 10596; [15]): 16 µg/mL (≈ 34.3 µM); MIC (E. coli ATCC 10596; [16]): 16 µg/mL (≈ 34.3 µM)
3 | CC(=O)N/N=C/c1ccc2cccc(NS(=O)(=O)c3ccc(C(F)(F)F)cc3)c2n1 [ZDR120, (E/Z)—N-(2-((2-Acetylhydrazineylidene)methyl)quinolin-8-yl)-4-(trifluoromethyl)benzenesulfonamide] | – | – | – | – | – | – | – | – | > 256 µg/mL | 1 µg/mL (≈ 2.29 µM) | 32 µg/mL (≈ 73.3 µM) | 0.5 µg/mL (≈ 1.15 µM) | > 256 µg/mL | > 256 µg/mL | 16 µg/mL (≈ 36.7 µM) | 16 µg/mL (≈ 36.7 µM) | > 256 µg/mL | > 256 µg/mL | > 256 µg/mL | > 256 µg/mL | –
4 | O=[N+]([O-])c1ccc(O)c(NCc2ccc3cccc(NS(=O)(=O)c4ccc(C(F)(F)F)cc4)c3n2)c1 [ZDR170, N-(2-(((2-Hydroxy-5-nitrophenyl)amino)methyl)quinolin-8-yl)-4-(trifluoromethyl)benzenesulfonamide] | – | – | – | – | – | – | – | – | 16 µg/mL (≈ 30.9 µM) | 2 µg/mL (≈ 3.86 µM) | 8 µg/mL (≈ 15.4 µM) | 1 µg/mL (≈ 1.93 µM) | 128 µg/mL (≈ 247 µM) | 128 µg/mL (≈ 247 µM) | 8 µg/mL (≈ 15.4 µM) | 4 µg/mL (≈ 7.71 µM) | > 256 µg/mL | > 256 µg/mL | 256 µg/mL (≈ 494 µM) | 256 µg/mL (≈ 494 µM) | –
5 | O=S(=O)(Nc1cccc2ccc(CNC(CO)(CO)CO)nc12)c1ccc(C(F)(F)F)cc1 [ZDR102, N-(2-(((1,3-Dihydroxy-2-(hydroxymethyl)propan-2-yl)amino)methyl)quinolin-8-yl)-4-(trifluoromethyl)benzenesulfonamide] | – | – | – | – | – | – | – | – | 32 µg/mL (≈ 65.9 µM) | 16 µg/mL (≈ 33 µM) | 32 µg/mL (≈ 65.9 µM) | 16 µg/mL (≈ 33 µM) | 128 µg/mL (≈ 264 µM) | 32 µg/mL (≈ 65.9 µM) | 32 µg/mL (≈ 65.9 µM) | 16 µg/mL (≈ 33 µM) | 256 µg/mL (≈ 527 µM) | > 256 µg/mL | 256 µg/mL (≈ 527 µM) | 64 µg/mL (≈ 132 µM) | –
6 | O=S(=O)(Nc1cccc2ccc(/C=N/O)nc12)c1ccc(C(F)(F)F)cc1 [ZDR125, (E)-N-(2-((Hydroxyimino)methyl)quinolin-8-yl)-4-(trifluoromethyl)benzenesulfonamide] | – | – | – | – | – | – | – | – | 8 µg/mL (≈ 20.2 µM) | 0.5 µg/mL (≈ 1.26 µM) | 8 µg/mL (≈ 20.2 µM) | 0.125 µg/mL (≈ 0.316 µM) | > 256 µg/mL | > 256 µg/mL | 4 µg/mL (≈ 10.1 µM) | 4 µg/mL (≈ 10.1 µM) | > 256 µg/mL | > 256 µg/mL | > 256 µg/mL | > 256 µg/mL | –
7 | CN1CCN(CCNCc2ccc3cccc(NS(=O)(=O)c4ccc(C(F)(F)F)cc4)c3n2)CC1 [ZDR114, N-(2-(((2-(4-Methylpiperazin-1-yl)ethyl)amino)methyl)quinolin-8-yl)-4-(trifluoromethyl)benzenesulfonamide di-trifluoroacetate] | 32 µg/mL (≈ 63 µM) | 4 µg/mL (≈ 7.88 µM) | 32 µg/mL (≈ 63 µM) | 4 µg/mL (≈ 7.88 µM) | 128 µg/mL (≈ 252 µM) | 64 µg/mL (≈ 126 µM) | 64 µg/mL (≈ 126 µM) | 64 µg/mL (≈ 126 µM) | – | – | – | – | – | – | – | – | – | – | – | – | MBC (E. coli ATCC 10536; [13]): > 256 µg/mL; MBC (E. coli ATCC 10536; [14]): 64 µg/mL (≈ 126 µM); MIC (E. coli ATCC 10596; [15]): 64 µg/mL (≈ 126 µM); MIC (E. coli ATCC 10596; [16]): 64 µg/mL (≈ 126 µM)
8 | N/N=C/c1ccc2cccc(NS(=O)(=O)c3ccc(C(F)(F)F)cc3)c2n1 [ZDR127, (E)-N-(2-(Hydrazineylidenemethyl)quinolin-8-yl)-4-(trifluoromethyl)benzenesulfonamide] | – | – | – | – | – | – | – | – | > 256 µg/mL | 2 µg/mL (≈ 5.07 µM) | > 256 µg/mL | 1 µg/mL (≈ 2.54 µM) | > 256 µg/mL | > 256 µg/mL | 16 µg/mL (≈ 40.6 µM) | 16 µg/mL (≈ 40.6 µM) | > 256 µg/mL | > 256 µg/mL | > 256 µg/mL | > 256 µg/mL | –
9 | O=C(CNCc1ccc2cccc(NS(=O)(=O)c3ccc(C(F)(F)F)cc3)c2n1)NCCN1CCCCC1 [ZDR269, N-(2-(Piperidin-1-yl)ethyl)-2-(((8-((4-(trifluoromethyl)phenyl)sulfonamido)quinolin-2-yl)methyl)amino)acetamide di-trifluoroacetate] | 4 µg/mL (≈ 7.28 µM) | 16 µg/mL (≈ 29.1 µM) | 4 µg/mL (≈ 7.28 µM) | 8 µg/mL (≈ 14.6 µM) | 64 µg/mL (≈ 116 µM) | 128 µg/mL (≈ 233 µM) | 32 µg/mL (≈ 58.2 µM) | 64 µg/mL (≈ 116 µM) | – | – | – | – | – | – | – | – | – | – | – | – | MBC (E. coli ATCC 10536; [13]): 64 µg/mL (≈ 116 µM); MBC (E. coli ATCC 10536; [14]): 64 µg/mL (≈ 116 µM); MIC (E. coli ATCC 10596; [15]): 64 µg/mL (≈ 116 µM); MIC (E. coli ATCC 10596; [16]): 64 µg/mL (≈ 116 µM)
10 | O=S(=O)(Nc1cccc2ccc(CNCCc3ccccn3)nc12)c1ccc(C(F)(F)F)cc1 [ZDR095, N-(2-(((2-(Pyridin-2-yl)ethyl)amino)methyl)quinolin-8-yl)-4-(trifluoromethyl)benzenesulfonamide] | – | – | – | – | – | – | – | – | > 256 µg/mL | 1 µg/mL (≈ 2.06 µM) | > 256 µg/mL | 0.125 µg/mL (≈ 0.257 µM) | > 128 µg/mL | > 256 µg/mL | 64 µg/mL (≈ 132 µM) | 8 µg/mL (≈ 16.4 µM) | 128 µg/mL (≈ 263 µM) | 256 µg/mL (≈ 526 µM) | 128 µg/mL (≈ 263 µM) | > 256 µg/mL | –
